Laboratory results taken from paper PMC3608651, “A Broad Profile of Co-Dominant Epitopes Shapes the Peripheral Mycobacterium tuberculosis Specific CD8+ T-Cell Immune Response in South African Patients with Active Tuberculosis” (PLoS ONE, 2013).
Where two headings read alike, the source gives them in different places.

Tests used:
Format in all cases: binding
HLA-C*07:01 = HLA-C*07:01 (Homo sapiens, UniProt P10321, K90N/S123Y); conditions: duplicated experiments, positive binder >40%
HLA-A*30:02 [1] = molecular target: T1, HLA-A*30:02 (Homo sapiens, UniProt P04439, D101N/D140H/D185E/E176R/F33S/G80R/H175R/K168Q/Q94H/R138E/R41S/V100E); conditions: duplicated experiments, positive binder >40%
HLA-A*02:01 = HLA-A*02:01 (Homo sapiens, UniProt P04439, D140Y/D185E/D98H/E176V/E277Q/G131W/G231S/I119V/I121R/I166T/I218V/L300P/L318F/N151K/N90K/P208A/P217A/Q86G/Q94H/R138H/R169H/T345S); conditions: plate-bound monomer 0.5 µg/ml, duplicated experiments, positive binder >40%
HLA-B*07:02 = HLA-B*07:02 (Homo sapiens, UniProt P01889); conditions: percent relative the binding of positive control peptide […]; duplicated experiments; positive binder >40%
HLA-B*58:01 = HLA-B*58:01 (Homo sapiens, UniProt P01889, A329T/C349S/D201E/D98Y/E176V/E187L/E204Q/E69T/G107R/I218V/I90N/K202T/L105A/L119I/N104I/N87E/Q89R/Q94S/R106L/R155S/R180L/R86G/S101N/S121R/S35A/S48A/T118I/V127L/V306I/V36M/Y140S/Y91M); conditions: duplicated experiments, positive binder >40%
HLA-A*68:01 [2] = molecular target: T2, HLA-A*68:01 (Homo sapiens, UniProt P04439, A269V/D185E/E176V/E277Q/E87N/F33Y/G231S/I121M/I166T/I218V/L180W/L300P/L318F/N151K/P208A/P217A/Q86R/R169H/T345S); conditions: time points 0-8 h
HLA-A*68:01 [3] = molecular target: T2, HLA-A*68:01; conditions: duplicated experiments, positive binder >40%
HLA-A*24:02 = HLA-A*24:02 (Homo sapiens, UniProt P04439, D101N/D140Y/D185E/E176V/E190D/F33S/G103R/G107R/I119L/I121M/I306V/K335N/L105A/L180Q/L300P/N151K/N90K/Q86E/Q94H/R106L/R138H/R89G/T104I/T345S/V100E/W191G/Y123F); conditions: duplicated experiments, positive binder >40%
HLA-A*68:01 [4] = molecular target: T2, HLA-A*68:01
HLA-A*30:01 = HLA-A*30:01 (Homo sapiens, UniProt P04439, D140H/D185E/E176W/F33S/G80R/H175R/K168Q/R138E/R41S); conditions: duplicated experiments, positive binder >40%
HLA-A*30:02 [5] = molecular target: T1, HLA-A*30:02; conditions: time points 0-8 h
HLA-A*30:02 [6] = molecular target: T1, HLA-A*30:02
[7] = percent relative the binding of positive control peptide […]
[8] = percent relative the binding of positive control peptide KYFDEHYEY
[9] = percent relative the binding of positive control peptide KIQNFRVYY
[10] = percent relative the binding of positive control peptide FLPSDFFPSV
[11] = percent relative the binding of positive control peptide IAMESIVIW
[12] = percent relative the binding of positive control peptide KTGGPIYKR
[13] = percent relative the binding of positive control peptide RYLKDQQLL
[14] = peptide titrated 10−4 to 10−9 M
[15] = percent relative the binding of positive control peptide KTKDIVNGL

Substance	Bind C*07:01 (HLA-C*07:01; [7]) [%]	Bind A*30:02 (HLA-A*30:02 [1]; [7]) [%]	Bind A*02:01 (HLA-A*02:01; [7]) [%]	Bind B*07:02 (HLA-B*07:02) [%]	Bind B*58:01 (HLA-B*58:01; [7]) [%]	O-rate A*68:01 (t1/2) (HLA-A*68:01 [2]) [h]	Bind A*68:01 (HLA-A*68:01 [3]; [7]) [%]	Bind A*24:02 (HLA-A*24:02; [7]) [%]	Aff A*68:01 (ED50) (HLA-A*68:01 [4])	Bind A*30:01 (HLA-A*30:01; [7]) [%]	O-rate A*30:02 (t1/2) (HLA-A*30:02 [5]) [h]	Aff A*30:02 (ED50) (HLA-A*30:02 [6]) [nM]	Bind C*07:01 (HLA-C*07:01; [8]) [%]	Bind A*30:02 (HLA-A*30:02 [1]; [9]) [%]	Bind A*02:01 (HLA-A*02:01; [10]) [%]	Bind B*58:01 (HLA-B*58:01; [11]) [%]	Bind A*68:01 (HLA-A*68:01 [3]; [12]) [%]	Bind A*24:02 (HLA-A*24:02; [13]) [%]	Aff A*68:01 (ED50) (HLA-A*68:01 [4]; [14]) [M]	Bind A*30:01 (HLA-A*30:01; [15]) [%]
DW YSPACGK	0	0	10	0	0	0.6	136	0	2E -07 M	11	–	–	–	–	–	–	–	–	–	–
WGAQLNAMK	5	67	7	0	0	2.4	153	0	3E -07 M	0	–	–	–	–	–	–	–	–	–	–
AMGDAGGYK	0	80	31	8	0	3.2	94	0	5e-07 M	28	1.6	700	–	–	–	–	–	–	–	–
NTMAMMARD [Rv0288_79–87]	0	–	–	–	0	2.3	67	–	7e-05 M	–	–	–	–	–	–	–	–	–	–	–
LPQW LSANR	0	0	6	31	0	4.1	167	26	6E -08 M	29	–	–	–	–	–	–	–	–	–	–
QSSFYSDWY	22	90	0	0	39	0.4	82	0	1E -06 M	0	2.2	600	–	–	–	–	–	–	–	–
EAAASAIQG [Rv3875_12–20]	–	–	–	5	–	0.8	–	–	–	–	–	–	0	0	0	0	59	0	8e-07	0
ETFLTSELP	0	0	25	5	16	0.1	103	2	7e-07 M	4	–	–	–	–	–	–	–	–	–	–
ANTMAMMAR [Rv0288_78–86]	12	–	–	–	0	2.4	147	–	3e-06 M	–	–	–	–	–	–	–	–	–	–	–
SSFYSDWYS	1	72	53	0	0	0.1	103	0	1e-07 M	0	–	–	–	–	–	–	–	–	–	–
EANTMAMMA [Rv0288_77–85]	3	–	–	–	0	1.9	83	–	0.0007 M	–	–	–	–	–	–	–	–	–	–	–
EAYQGVQQK [Rv3875_49–57]	–	–	–	10	–	7.5	–	–	–	–	–	–	0	0	0	0	74	0	4e-08	0
